# Measured values: patent publication US11369623B2, “Anticancer combination of a CBP/catenin inhibitor and an immune checkpoint inhibitor” (PRISM Pharma Co., Ltd., priority 2015, dated 2022)
# Key:
# [1] = cited from earlier work
# [2] = test system: 624 mel cells and 928 mel cells; experiment: IL-10 production by melanoma cells (ELISA of culture supernatant); assay type: cell-based, human; conditions: 0.2 μM, 24 hr, FIG. 5
# Procedure: IL-10 Production Suppressive Action of CBP/Catenin Inhibitor (Compound 1)
# 624 mel cells and 928 mel cells were used, which are cell lines (melanoma) established from human malignant melanoma patients by US NIH. These cells have been activated and have IL-10 production ability.
# In a culture medium (10% FCS-containing RPMI1640, penicillin and streptomycin added), respective melanoma cells were seeded in a 6-well plate at a concentration of 1×10^5 cells/2 ml/well. After seeding, compound 1 was added to a given concentration and the cells were cultured for 24 hr. After 24 hr, the culture supernatant was recovered, and the concentration of IL-10 in the supernatant was measured. For the measurement of IL-10 concentration, Human IL10 OptEIA ELISA set (BD, #555157) was used.
# [3] = test system: 624 mel cells and 928 mel cells; experiment: Influence on proliferation of melanoma cells; assay type: cell-based, human; conditions: 24 hr, any cell
# [4] = test system: human breast cancer cell line (MDA-MB-231); experiment: Side population (cancer stem cell) fraction of MDA-MB-231 after compound treatment; assay type: cell-based; conditions: 0.3 μM in culture medium, after 4 days; untreated 1.6% SP cells
# Procedure: To a side population fraction (cancer stem cells were considered to have been concentrated) obtained by two-dimensional cell sorting of human breast cancer cell line (MDA-MB-231) with Hoechst Blue and Hoechst Red was added 0.3 μM CBP/catenin inhibitor (compound 2) in the culture medium. After 4 days, the side population fraction almost disappeared (when untreated with medicament, 1.6% SP cells were detected, whereas 0% was detected in compound 2 treatment group), and the cancer stem cells were considered to have differentiated (FIG. 3).
# [5] = test system: spontaneous breast cancer of transgenic mouse (MMTV-Wnt-1); experiment: Tumor volume in mice serially transplanted with spontaneous breast cancer of transgenic mouse (MMTV-Wnt-1); assay type: in vivo, mouse (C57BL/6J); conditions: compound A 50 mg/kg twice per day oral, antibody 10 mg/kg twice per week i.p.
# Description: Effect of combined use of CBP/catenin inhibitor (compound A) and anti-mouse PD-1 (CD279) antibody in animal model serially transplanted with subcultured spontaneous breast cancer of transgenic mouse (MMTV-Wnt-1)
# Spontaneous breast cancer of transgenic mouse (MMTV-Wnt-1), in which Wnt-1 had been locally expressed in mammary gland epithelial cells, was harvested, and serially transplanted to the background line mouse (C57BL/6J) with trocar. When the serially transplanted tumor became about 1.5 g, it was isolated, processed into fragments of about 30 mg, and subcutaneously transplanted to the side of the body of 5 mice (C57BL/6J) per each group. Engraftment of the tumor was confirmed, and compound A (50 mg/kg, twice per day, 21 days, oral administration) and anti-mouse PD-1 antibody (Clone: RMP1-14, BioXCell) (10 mg/kg, twice per week, 3 weeks, intraperitoneal administration) were each administered singly or in combination.
# With the day of the start of administration as day 0, the major axis and the minor axis of the tumor developed in each mouse were measured by Digimatic Caliper (Mitsutoyo) on days 4, 7, 11, 14, 18, and 21.
# The tumor volume was calculated according to the following formula. tumor volume TV(mm^3)=tumor major axis(mm)×tumor minor axis^2(mm^2)/2
# bile duct cancer = conditions: cited from earlier work
structure (smiles),measurement,setting,value
C[C@H]1[C@H]2N(C(=O)CN(C)N2C(=O)NCc2ccccc2)[C@@H](Cc2ccc(OP(=O)(O)O)cc2)C(=O)N1Cc1cccc2cccnc12 [PRI-724],toxicity in human compared with conventional Wnt inhibitors having other mechanisms,[1],clearly less toxic in human than conventional Wnt inhibitors
"C[C@H]1[C@H]2N(C(=O)CN(C)N2C(=O)NCc2ccccc2)[C@@H](Cc2ccc(OP(=O)(O)O)cc2)C(=O)N1Cc1cccc2cccnc12 [compound 1, 4-(((6S,9S,9aS)-1-(benzylcarbamoyl)-2,9-dimethyl-4,7-dioxo-8-(quinolin-8-ylmethyl)octahydro-1H-pyrazino[2,1-c][1,2,4]triazin-6-yl)methyl)phenyl dihydrogen phosphate]",production of IL-10,[2],production of IL-10 was suppressed
same,influence on the proliferation,[3]; 0.2 μM,an influence on the proliferation was not confirmed
same,influence on the proliferation,[3]; 1 μM,an influence on the proliferation was confirmed
"C[C@H]1[C@H]2N(C(=O)CN(C)N2C(=O)NCc2ccccc2)[C@@H](Cc2ccc(O)cc2)C(=O)N1Cc1cccc2cccnc12 [compound 2, (6S,9S,9aS)-N-benzyl-6-(4-hydroxybenzyl)-2,9-dimethyl-4,7-dioxo-8-(quinolin-8-ylmethyl)octahydro-1H-pyrazino[2,1-c][1,2,4]triazine-1-carboxamide]",SP cells detected (side population fraction),[4],0%
"C=CCN1CC(=O)N2[C@@H](Cc3ccc(O)cc3F)C(=O)N(Cc3cccc(N4CC(N5CCN(CC)CC5)C4)n3)C[C@@H]2N1C(=O)NCc1ccccc1 [compound A, (6S,9aS)-N-benzyl-8-((6-(3-(4-ethylpiperazin-1-yl)azetidin-1-yl)pyridin-2-yl)methyl)-6-((2-fluoro-4-hydroxyphenyl)methyl)-4,7-dioxo-2-(prop-2-en-1-yl)-octahydro-1H-pyrazino[2,1-c][1,2,4]triazine-1-carboxamide]","tumor volume TV, Mean ± SEM",[5]; Day 0,75.3 ± 9.2 mm^3
same,"tumor volume TV, Mean ± SEM",[5]; Day 4,83.2 ± 8.5 mm^3
same,"tumor volume TV, Mean ± SEM",[5]; Day 7,90.5 ± 22.3 mm^3
same,"tumor volume TV, Mean ± SEM",[5]; Day 11,123.1 ± 40.5 mm^3
same,"tumor volume TV, Mean ± SEM",[5]; Day 14,140.4 ± 45.1 mm^3
same,"tumor volume TV, Mean ± SEM",[5]; Day 18,221.6 ± 47.9 mm^3
same,"tumor volume TV, Mean ± SEM",[5]; Day 21,237.7 ± 41.2 mm^3
"O=C1[C@H](Cc2ccc(O)cc2)N2C(=O)CCN(C(=O)NCc3ccccc3)[C@H]2CN1Cc1cccc2ccccc12 [ICG-001, (6S,9aS)-N-benzyl-6-[(4-hydroxyphenyl)methyl]-8-(naphthalen-1-ylmethyl)-4,7-dioxo-3,6,9,9a-tetrahydro-2H-pyrazino[1,2-a]pyrimidine-1-carboxamide]",proliferation inhibitory effect in animal model,bile duct cancer,strong proliferation inhibitory effect
